Values after ≈ are worked out from the molar mass of the structure shown.

The source of these data is patent publication US20070185132A1, “Cyclopropyl group substituted oxazolidinone antibiotics and derivatives thereo” (priority 2003, published 2007).

Common to all, as to format: cell-based
In assay [1] the test system is Staphylococcus aureus Smith. Description: MIC, agar dilution method, S. aureus Smith. Conditions: Mueller-Hinton agar, 35° C., 24 hours. As for the experimental part: (§1) The following in vitro results were obtained based on an agar dilution method except for C. pneumoniae. The activity is presented as the minimum inhibitory concentration (MIC).
(§2) S. aureus and M. catarrhalis were tested on Mueller-Hinton agar, using an approximate inoculum of 1×10^4 cfu/spot an incubation temperature of 35° C. for 24 hours. The MIC was defined as the lowest concentration at which no visible bacterial growth was observed.
For orientation: In agar dilution, organisms are placed on agar that contains the substance at set levels.

In assay [2] the test system is Streptococcus pneumoniae PRQR (penicillin resistant, quinolone resistant). The experiment in a line: MIC, agar dilution method, S. pneumoniae PRQR. The settings on record: Mueller-Hinton agar with 5% defibrinated horse blood, 35° C., 5% CO2, 24 hours. How it is done: as §1
(§3) Streptococci and enterococci were tested on Mueller-Hinton agar supplemented with 5% defibrinated horse blood, using an approximate inoculum of 1×10^4 cfu/spot an incubation temperature of 35° C. in an atmosphere of 5% CO2 for 24 hours. The MIC was defined as the lowest concentration at which no visible bacterial growth was observed.

The test system of assay [3] is Enterococcus faecium VRQR (vancomycin resistant, quinolone resistant). Description: MIC, agar dilution method, E. faecium VRQR. Conditions: Mueller-Hinton agar with 5% defibrinated horse blood, 35° C., 5% CO2, 24 hours. As for the experimental part: as §1, §3
For assay [4], the system named is Moraxella catarrhalis ATCC25238. The experiment in a line: MIC, agar dilution method, M. catarrhalis ATCC25238. Conditions: Mueller-Hinton agar, 35° C., 24 hours. As for the experimental part:
as §1, §2

Assay [5] relates to Staphylococcus aureus MR (methicillin resistant). The experiment in a line: MIC, agar dilution method, S. aureus MR. Conditions: Mueller-Hinton agar, 35° C., 24 hours. As for the experimental part:
as §1, §2

The subject of assay [6] is Streptococcus pneumoniae IID553. The experiment in a line: MIC, agar dilution method, S. pneumoniae IID553. The settings on record: Mueller-Hinton agar with 5% defibrinated horse blood, 35° C., 5% CO2, 24 hours. As for the experimental part:
as §1, §3

Assay [7] has as its system Streptococcus pyogenes IID692. Description: MIC, agar dilution method, S. pyogenes IID692. Conditions: Mueller-Hinton agar with 5% defibrinated horse blood, 35° C., 5% CO2, 24 hours. How it is done: as §1, §3
Assay [8] deals with Staphylococcus aureus CR (chloramphenicol resistant). Description: MIC, agar dilution method, S. aureus CR. Conditions: Mueller-Hinton agar, 35° C., 24 hours. How it is done:
as §1, §2

As usually defined, the MIC is the lowest concentration that inhibits growth of the organism. Low values mean a more susceptible organism, high ones a less susceptible organism. Turning to `CC(=O)NC[C@H]1CN(c2ccc(-c3ccc(C4(C#N)CC4)nc3)c(F)c2)C(=O)O1` [Example 3, N-[5(S)-3-[4-[2-(1-Cyanocyclopropan-1-yl)pyridin-5-yl]-3-fluorophenyl]-2-oxooxazolidin-5-ylmethyl]acetamide], the MIC in assay [1] was 0.06 µg/mL (≈ 0.152 µM); in assay [2] it was 0.125 µg/mL (≈ 0.317 µM); in assay [3], 0.125 µg/mL (≈ 0.317 µM); in assay [4], 0.5 µg/mL (≈ 1.27 µM); in assay [5], 0.125 µg/mL (≈ 0.317 µM); in assay [6] it was 0.125 µg/mL (≈ 0.317 µM). The minimum inhibitory concentration (MIC) in assay [7] stood at 0.125 µg/mL (≈ 0.317 µM); in assay [8] it was 0.5 µg/mL (≈ 1.27 µM).

On to `CC(=O)NC[C@H]1CN(c2ccc(-c3ccc(C4(N)CC4)nc3)cc2)C(=O)O1` [Example 5, N-[5(S)-3-[4-[2-(1-Aminocyclopropan-1-yl)pyridin-5-yl]phenyl]-2-oxooxazolidin-5-ylmethyl]acetamide], for which the minimal inhibitory concentration (MIC) amounted to 0.25 µg/mL (≈ 0.682 µM) in assay [1]; 0.25 µg/mL (≈ 0.682 µM) in assay [2]; 0.5 µg/mL (≈ 1.36 µM) in assay [3]; 2 µg/mL (≈ 5.46 µM) in assay [4]; 0.5 µg/mL (≈ 1.36 µM) in assay [5]; 0.5 µg/mL (≈ 1.36 µM) in assay [6]. Moreover, the MIC was found to be 0.25 µg/mL (≈ 0.682 µM) in assay [7] and 2 µg/mL (≈ 5.46 µM) in assay [8].

`N#CC1(c2ccc(-c3ccc(N4C[C@H](Cn5ccnn5)OC4=O)cc3)cn2)CC1` [Example 18, 1-[5(R)-3-[4-[2-(1-Cyanocyclopropan-1-yl)pyridin-5-yl]phenyl]-2-oxooxazolidin-5-ylmethyl]-1,2,3-triazole]: the minimal inhibitory concentration (MIC) in assay [1] was 0.06 µg/mL (≈ 0.155 µM); in assay [2], 0.125 µg/mL (≈ 0.323 µM); in assay [3], 0.125 µg/mL (≈ 0.323 µM); in assay [4], 0.5 µg/mL (≈ 1.29 µM); in assay [5], 0.06 µg/mL (≈ 0.155 µM); in assay [6], 0.125 µg/mL (≈ 0.323 µM). Moreover, the values for the MIC in assay [7] and in assay [8] were 0.06 µg/mL (≈ 0.155 µM) and 1 µg/mL (≈ 2.59 µM), respectively.

Take `N[C@@H]1[C@H]2CN(c3ccc(-c4ccc(N5C[C@H](Cn6ccnn6)OC5=O)cc4F)cn3)C[C@@H]12` [Example 32, 1-[5(R)-3-[4-[2-[(1α,5α,6α)-6-amino-3-azabicyclo[3.1.0]hexan-3-yl]pyridin-5-yl]-3-fluorophenyl]-2-oxooxazolidin-5-ylmethyl]-1,2,3-triazole]: the MIC in assay [1] is 0.125 µg/mL (≈ 0.287 µM); in assay [2], 0.125 µg/mL (≈ 0.287 µM); in assay [3], 0.5 µg/mL (≈ 1.15 µM); in assay [4], 2 µg/mL (≈ 4.59 µM); in assay [5], 0.125 µg/mL (≈ 0.287 µM); in assay [6] it was 0.25 µg/mL (≈ 0.574 µM). The results for the MIC in assay [7] and in assay [8] were 0.125 µg/mL (≈ 0.287 µM) and 1 µg/mL (≈ 2.3 µM), respectively.

Turning to `CC(=O)NC[C@H]1CN(c2ccc(N3CCOCC3)c(F)c2)C(=O)O1` [Linezolid, reference compound], the minimum inhibitory concentration (MIC) in assay [1] is 1 µg/mL (≈ 2.96 µM); in assay [2], 1 µg/mL (≈ 2.96 µM); in assay [3] it was 2 µg/mL (≈ 5.93 µM); in assay [4], 4 µg/mL (≈ 11.9 µM); in assay [5], 1 µg/mL (≈ 2.96 µM); in assay [6], 2 µg/mL (≈ 5.93 µM). For the same compound, the MIC in assay [7] is 1 µg/mL (≈ 2.96 µM); in assay [8] it was 16 µg/mL (≈ 47.4 µM).
